Columns and labels:
pancreatic cancer = settings: Stage III/IV disease, gemcitabine monotherapy, unresectable pancreatic cancer; cited from earlier work
[1] = test system: pancreatic adenocarcinoma; experiment: Retrospective RTOG 9704 study: tumor hENT1 expression (IHC, SP120 antibody) versus overall survival after adjuvant gemcitabine or 5FU; assay type: in vivo, human; settings: for OS of Low hENT1 subgroup compared to High hENT1 subgroup / OS across High, Mid and No hENT1 subgroups: Method Six; for OS across High, Mid and No hENT1 subgroups: three subgroups (FIG. 2 score sheet), FIGS. 33-34
Description: The RTOG 9704 study and its results are further described in Regine, W. F. et al. (2008) JAMA 299(9):1019-1026; Regine, W. F. et al. (2011) Ann. Surg. Oncol. 18:1319-1326.
Formalin-fixed, paraffin-embedded (FFPE) specimens have been retrieved from tissue repositories. The specimens were obtained from patients prior to adjuvant therapy. Tissue was processed into tissue microarrays (TMA) at the RTOG Biospecimen Resource center and IHC staining was performed in a central laboratory (Ventana Medical Systems). Stained slides were interpreted by pathologists blind to study outcomes.
Samples have been centralized within the RTOG Biospecimen Resource facility. Tissue micro arrays (TMA) were also constructed in the RTOG Biospecimen Resource facility. Three cores from each tumor specimen were arrayed on three separate TMAs. A total of 220 cases were arrayed on the TMAs.
Slides from TMAs were prepared and forwarded to the core pathology laboratory (Ventana Medical Systems), and stained by SP120 rabbit monoclonal antibody for detection of hENT1 protein according to established methods. The following parameters were recorded for each specimen based on scoring by a pathologist blinded to the patient's clinical characteristics and outcome: • Intensity of staining (e.g. 0=no stain, 1+=weakly positive, 2+=moderately positive, 3+=strongly positive) • Percentage of tumor cells with staining at each intensity level (% of tumor tissue specifically excluding non-malignant cells/regions) • Pattern of staining (segmented or diffuse) • Cellular compartment (membrane or cytoplasm).

[2] = FIG. 3 algorithm (50% of tumor with membrane staining at 10×), FIGS. 4-5
[3] = FIG. 6 algorithm (PP at 2×, 4×, 10× and negative tumor <=50%), FIGS. 7-8

| Compound | median OS (pancreatic cancer) | OS of No hENT1 subgroup compared to Low and High hENT1 subgroups ([1]; Method Five, FIG. 19) | OS of combined Low and High hENT1 subgroup compared to No hENT1 subgroup ([1]; Method Five, FIG. 20) | OS of negative hENT1 subgroup compared to Weak, Moderate or Strong subgroups ([1]; Method Four, FIG. 31) | OS of H-score<=20 subgroup compared to H-score 20-80 and >=80 subgroups ([1]; Method One, FIG. 23) | OS of H-score>=50 patients compared to H-score <50 patients ([1]; Method One, FIG. 24) | OS of Low hENT1 subgroup compared to High hENT1 subgroup [1, 2] | OS of Low hENT1 subgroup compared to High hENT1 subgroup [1, 3] | OS across High, Mid and No hENT1 subgroups [1] | OS of negative hENT1 subgroup compared to Segmental or Diffuse subgroups ([1]; Method Three, FIG. 27) | OS of patients with detectable hENT1 (S or D) compared to no hENT1 expression ([1]; Method Three, FIG. 28) | OS of subgroup N, 20× or 40× compared to subgroup PP at 2×, 4× or 10× ([1]; Method Two (magnification), FIGS. 15-16) | median OS as hENT1 expression increases from No to Low to High ([1]; Method Five (percent negative staining), FIG. 18) | median OS as hENT1 expression increases from Negative to Weak to Moderate to Strong ([1]; Method Four (staining intensity), FIG. 30) | median OS as hENT1 expression (H-score subgroup) increases ([1]; Method One (H-score), FIG. 22) | median OS as hENT1 expression increases from Negative to Segmental to Diffuse ([1]; Method Three (staining pattern), FIG. 26) |
| --- | --- | --- | --- | --- | --- | --- | --- | --- | --- | --- | --- | --- | --- | --- | --- | --- |
| Nc1ccn([C@@H]2O[C@H](CO)[C@@H](O)C2(F)F)c(=O)n1 [gemcitabine] | 5-7 months | shorter OS | longer OS | shorter OS | shorter OS | longer OS | shorter OS | shorter OS | No hENT1 expression exhibited the shortest OS followed by the Mid hENT1 subgroup and the High hENT1 subgroup had the longest OS | shorter OS | longer OS | shorter OS | – | – | – | – |
| O=c1[nH]cc(F)c(=O)[nH]1 [5FU, 5-Fluorouracil] | – | – | – | – | – | – | do not demonstrate improvement in OS | do not demonstrate improvement in OS | do not demonstrate improvement in OS | – | – | – | do not demonstrate an improvement in OS | do not demonstrate an improvement in OS | do not demonstrate an improvement in OS | do not demonstrate an improvement in OS |

Source: US20130116209A1, “METHOD FOR SELECTION OF CHEMOTHERAPEUTIC AGENTS FOR ADENOCARCINOMA CANCER” (VENTANA MEDICAL SYSTEMS, INC., priority 2011, published 2013)
